≈ marks a conversion by molar mass, not a printed value. Like-named read-outs stand apart in the source and are kept apart here. Numbered stars: 1 amine (or outer) side, 2 acyl side, 3 side chain; on linkers, the order of the positions; unused ones are H or OH. Bridge positions count the residues as written; N and C are the ends. Ends that are not written are not given here. Peptide text beside a SMILES is read from it. X1 = O=C(NC[*:1])NC[*:2]
Tests used:
[1] = tested on: BCG bacteria; test: microbe, parasite or virus in culture; settings: Mycobacterium tuberculosis variant bovis BCG
[2] = tested on: BCG; assay type: cell-based, attenuated Mycobacterium bovis; settings: treated as in Example 5
[3] = tested on: BCG bacteria
[4] = tested on: trypsin; settings: trypsin 5 μg/mL
Experimental: (§1) A 4 mg/mL SAH1 solution and a 10 μg/mL trypsin solution each were prepared with PBS (pH 7.4) as a solvent. 250 μL of the trypsin solution was added to 250 μL of the SAH1 solution, and a reaction was conducted in an ice bath. A sample was collected at different time points after the reaction to determine the decomposition of SAH1 by RP-HPLC. RP-HPLC conditions were as follows: A C18 reversed-phase Bio-Rad analytical column was adopted: 250× 4 mm, a pore size: 30 nm, and a particle size: 7 μm. At 0 min to 40 min, linear gradient elution was conducted with 10% to 90% acetonitrile aqueous solutions, with 0.1% TFA (w/v) in both acetonitrile and water. A flow rate was 1.2 mL/min.
(§2) In addition, with the same method as above, the SAH1 aqueous solution was replaced with a 4 mg/mL BMAP-18 aqueous solution to detect the hydrolysis of BMAP-18 by trypsin.

[5] = in vitro; settings: mouse
Experimental: A positive control well was set. The positive control well was the same as test wells except that the polypeptide SAH1 aqueous solution was replaced with a DMEM complete medium. After the incubation, 10 μL of a CCK-8 reaction solution (Beijing Solarbio) was added to each well, and the plate was further incubated at 37° C. for 2 h. Finally, the absorbance at 450 nm was detected with a microplate reader (Synersymx, Biotek). An OD value of the positive control well was BO, an OD value of a test well in which an antimicrobial peptide was added was B, and B/BO was called an inhibition rate. […] With a concentration of an antimicrobial peptide as an x-coordinate and an inhibition rate as a y-coordinate, a line chart was plotted, and IC50 was obtained through fitting.

[6] = tested on: trypsin; test: in vitro; settings: isolated enzyme trypsin, pH 7.4
Experimental: as §1, §2

Row | Molecule | MIC [1] [µM] | Peak area (RP-HPLC) ([4]; reaction time 0 min) | Polypeptide residue ([4]; reaction time 0 min) [%] | Peak area (RP-HPLC) ([4]; reaction time 15 min) | Polypeptide residue ([4]; reaction time 15 min) [%] | Peak area (RP-HPLC) ([4]; reaction time 30 min) | Polypeptide residue ([4]; reaction time 30 min) | IC50 at 24 h [5] [µM] | remaining at 0.25 h, 2 mg/mL [6] [%] | also measured
1 | CC[C@@H](CO)NCCN[C@@H](CC)CO [Ethambutol] | 800 (≈ 163 µg/mL) |  |  |  |  |  |  |  |  | 
2 | NNC(=O)c1ccncc1 [Isoniazid] | 800 (≈ 110 µg/mL) |  |  |  |  |  |  |  |  | 
3 | CO[C@H]1/C=C/O[C@@]2(C)Oc3c(C)c(O)c4c(O)c(c(/C=N/N5CCN(C)CC5)c(O)c4c3C2=O)NC(=O)/C(C)=C\C=C\[C@H](C)[C@H](O)[C@@H](C)[C@@H](O)[C@@H](C)[C@H](OC(C)=O)[C@@H]1C [Rifampicin] | 400 (≈ 329 µg/mL) |  |  |  |  |  |  |  |  | 
4 | CC(C)CC(NC(=O)C(CCCCN)NC(=O)C(CCCCN)NC(=O)C(Cc1ccccc1)NC(=O)C(CC(C)C)NC(=O)C(CCCCN)NC(=O)C(CCCCN)NC(=O)C(Cc1ccccc1)NC(=O)C(CCCCN)NC(=O)C1CSCNC(=O)NCSCC(NC(=O)C(Cc2ccccc2)NC(=O)C(CCCNC(=N)N)NC(=O)CN)C(=O)NC(CCCNC(=N)N)C(=O)NC(Cc2ccccc2)C(=O)NC(CCCNC(=N)N)C(=O)N1)C(=O)NC(CO)C(=O)O (stereo not drawn) [SAH1] (H-GRFCRFRCKFKKLFKKLS-OH; linker 4-8 via X1; configuration not given here) |  | 274.44 | 100 | 185.49 | 67.59 | 125.94 | 45.89% | 300 | 67.6 | impact on cell membrane and intracellular structure of BCG (TEM) [2]: largely missed, resulting in cavities and bacterial death; MIC ([3]; BCG bacteria, 37° C. for 7 d, then resazurin 2 d, 7H9 medium): 12.5 µM (≈ 29.7 µg/mL); Peak area (RP-HPLC) ([4]; reaction time 60 min): 82.92; Polypeptide residue ([4]; reaction time 60 min): 30.21%; remaining at 1 h, 2 mg/mL [6]: 30.2%
5 | GRFKRFRKKFKKLFKKLS-OH [BMAP-18, G-R-F-K-R-F-R-K-K-F-K-K-L-F-K-K-L-S-OH] |  | 254.43 | 100 | 45.20 | 17.76 | 0.02 | almost completely hydrolyzed | 150 | 17.8 | MIC [3]: 300 µM; antibacterial ability relative to SAH1 [3]: one twenty-fourth; remaining at 0.5 h, 2 mg/mL [6]: 0.01%
